These results are taken from patent publication US4800161A (priority 1984, dated 1989).

The target of test [1] is aldose-1-epimerase (mutarotase, EC 5.1.3.3) from Acinetobacter calcoaceticus (Acinetobacter calcoaceticus, UniProt P05149). Here is the method:
Principle: [drawing 1] Mutarotase, glucose-dehydrogenase and NAD are caused to react with a freshly prepared solution of α-glucose, and the NADH2 is determined by measuring the extinction at 366 nm. The measurement of the acceleration of the formation of NADH2 by mutarotase (compared with a blank without mutarotase) allows the mutarotase activity in the solution used to be calculated.
As soon as the extinction is constant, the start is made with 0.10 ml of solution 4 in each case.
A fresh glucose solution is prepared for each measurement. It is absolutely necessary to adhere to the following procedure in order to allow for the existing mutarotation: a 150 ml beaker is filled with 100 ml of distilled water and the temperature is adjusted to 20° C. The beaker is evenly stirred, 30 mg of α-glucose are added, the stopwatch is started and the time is marked on the recorder chart. Mixing takes place for 30 seconds. Within the next 15 seconds, the glucose solution is pipetted into the cell, the cell content is thoroughly mixed and, after the expiration of these 15 seconds, the increase in extinction is recorded. The measurment is taken at 366 nm, layer thickness 1 cm, cell temperature 25° C.
For evaluation, a tangent is put to the linear part at the origin of the recording curve, and ΔE/minute is read off; subtraction of the blank from the analysis value gives a value of ΔΔE/minute, which is inserted into the following calculation equation:
Enzyme activity=ΔΔE/minute×4.09 U of mutarotase per ml of […]

Test [2] addresses mutarotase from bovine kidneys (Bos taurus, UniProt Q5EA79). The note with it: read-out: Michaelis constant (KM); glucose determination context.
The subject of test [3] is mutarotase from Aspergillus niger. The conditions noted are these: read-out: Michaelis constant (KM); Biochim. Biophys. Acta 662, 285 (1981); cited from earlier work.

The term Km denotes the concentration of substrate that gives half-maximal velocity.

Sequence of aldose-1-epimerase (mutarotase, EC 5.1.3.3) from Acinetobacter calcoaceticus (P05149 21-381): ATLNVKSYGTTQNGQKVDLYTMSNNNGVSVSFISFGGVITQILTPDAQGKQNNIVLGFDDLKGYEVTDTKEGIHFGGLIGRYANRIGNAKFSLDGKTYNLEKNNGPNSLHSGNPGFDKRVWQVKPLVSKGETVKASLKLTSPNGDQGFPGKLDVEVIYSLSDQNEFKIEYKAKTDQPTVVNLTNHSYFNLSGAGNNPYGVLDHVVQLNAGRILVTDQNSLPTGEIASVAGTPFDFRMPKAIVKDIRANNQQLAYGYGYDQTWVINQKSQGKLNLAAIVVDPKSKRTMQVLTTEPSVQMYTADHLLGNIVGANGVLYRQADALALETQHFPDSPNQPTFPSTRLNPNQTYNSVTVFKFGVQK
Sequence of mutarotase from bovine kidneys (Q5EA79 whole entry): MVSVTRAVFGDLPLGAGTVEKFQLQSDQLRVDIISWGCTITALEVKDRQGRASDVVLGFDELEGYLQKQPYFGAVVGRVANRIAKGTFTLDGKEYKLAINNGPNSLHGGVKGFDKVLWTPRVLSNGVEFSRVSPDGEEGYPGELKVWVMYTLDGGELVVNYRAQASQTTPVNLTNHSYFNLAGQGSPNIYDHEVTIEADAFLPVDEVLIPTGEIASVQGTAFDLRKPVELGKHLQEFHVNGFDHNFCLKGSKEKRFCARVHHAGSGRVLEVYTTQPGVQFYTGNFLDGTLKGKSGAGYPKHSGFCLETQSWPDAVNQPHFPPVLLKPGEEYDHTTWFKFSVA

With galactose, in test [1], the “Michaelis constant for galactose compared with glucose” value is “same Michaelis constant” and the “Michaelis constant for galactose relative to that of the mutarotase from bovine kidneys” value is recorded as 3 times.
In the case of glucose, the Km in test [2] is 18 to 20 mM; in test [3] it was 50 mM; in test [1] (read-out: Michaelis constant (KM) for glucose, mutarotase according to the invention), 6 to 8 mM.
